This is an account of results in PubChem BioAssay AID330 (DTP/NCI, 2004).

This assay concerns P388 leukemia ip, CD2F1 mice, survival T/C. In words: NCI In Vivo Anticancer Drug Screen. Data for tumor model P388 Leukemia (intraperitoneal) in CD2F1 (CDF1) mice. The note with it: endpoint: median survival time, higher = longer survival. The method, boiled down: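 Mice carrying the transplanted tumor received test compound or vehicle. Survival was recorded in each group, and the value is the treated-group measurement divided by that of the vehicle-treated control group.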

Setting [1] is: dose: 60.0 mg/kg/injection, schedule: Q01DX005 (ip), vehicle: Klucel (hydroxypropylcellulose) (HPC).
The mark [2] stands for this setting: dose: 120.0 mg/kg/injection, schedule: Q01DX005 (ip), vehicle: Klucel (hydroxypropylcellulose) (HPC).
[3] abbreviates: dose: 240.0 mg/kg/injection, schedule: Q01DX005 (ip), vehicle: Klucel (hydroxypropylcellulose) (HPC).
Setting [4] is: dose: 60.0 mg/kg/injection, schedule: Q01DX005 (ip), vehicle: saline with Tween-80.
Where [5] appears, read: dose: 120.0 mg/kg/injection, schedule: Q01DX005 (ip), vehicle: saline with Tween-80.
[6] abbreviates: dose: 240.0 mg/kg/injection, schedule: Q01DX005 (ip), vehicle: saline with Tween-80.
The mark [7] stands for this setting: dose: 1.25 mg/kg/injection, schedule: Q01DX009 (ip), vehicle: saline.
[8] abbreviates: dose: 2.5 mg/kg/injection, schedule: Q01DX009 (ip), vehicle: saline.
Setting [9] is: dose: 5.0 mg/kg/injection, schedule: Q01DX009 (ip), vehicle: saline.

Values joined by “and” are separate entries in the source; they are usually repeats but may differ in a detail not shown here. Equal entries are not always repeated. Inconclusive results and toxic doses are left out.

As for `CCOC(=O)C1CCc2ccc(OC)c(OC)c2C1` (centres undefined), the T/C by setting is: (dose: 12.5 mg/kg/injection, schedule: Q01DX009 (ip), vehicle: other) 100 % of control; (dose: 25.0 mg/kg/injection, schedule: Q01DX009 (ip), vehicle: other) 97 % of control; (dose: 50.0 mg/kg/injection, schedule: Q01DX009 (ip), vehicle: other) 105 % of control; (dose: 100.0 mg/kg/injection, schedule: Q01DX009 (ip), vehicle: other) 100 % of control; (dose: 200.0 mg/kg/injection, schedule: Q01DX009 (ip), vehicle: other) 110 % of control.

Turning to `O=[N+]([O-])c1cccc2nsnc12`, the T/C reads like this: (dose: 6.25 mg/kg/injection, schedule: Q01DX009 (ip), vehicle: saline with Tween-80) 100 % of control; (dose: 12.5 mg/kg/injection, schedule: Q01DX009 (ip), vehicle: saline with Tween-80) 116 % of control; (dose: 25.0 mg/kg/injection, schedule: Q01DX009 (ip), vehicle: saline with Tween-80) 94 % of control; (dose: 50.0 mg/kg/injection, schedule: Q01DX009 (ip), vehicle: saline with Tween-80) 107 % of control.

For the compound `C=C(C)C1CCC2(C)C1CCC1(C)C2CCC2C3(C)C4OC(OC4=O)C(C)(C)C3CCC21C` (centres undefined), the T/C (dose: 25.0 mg/kg/injection, schedule: Q01DX005 (ip), vehicle: DMSO) is 98 % of control; the T/C (dose: 50.0 mg/kg/injection, schedule: Q01DX005 (ip), vehicle: DMSO) is 100 % of control; the T/C (dose: 100.0 mg/kg/injection, schedule: Q01DX005 (ip), vehicle: DMSO) was 100 % of control; the T/C (dose: 200.0 mg/kg/injection, schedule: Q01DX005 (ip), vehicle: DMSO) was 113 % of control; the T/C (dose: 400.0 mg/kg/injection, schedule: Q01DX005 (ip), vehicle: DMSO) was 108 % of control.

`CC(NS(=O)(=O)N1CCOC1=O)c1ccccc1` (centres undefined): the T/C under setting [1] is 104 % of control, the T/C under setting [2] was 107 % of control and the T/C under setting [3] is 104 % of control.

On to `COc1cc2c(c(OC)c1OC)-c1ccc(OC)c(=O)cc1[C@@H](N(C)C)CC2`, for which the T/C (dose: 1.25 mg/kg/injection, schedule: Q01DX009 (ip), vehicle: Klucel (hydroxypropylcellulose) (HPC)) is 100 % of control; the T/C (dose: 2.5 mg/kg/injection, schedule: Q01DX009 (ip), vehicle: Klucel (hydroxypropylcellulose) (HPC)) was 107 % of control; the T/C (dose: 5.0 mg/kg/injection, schedule: Q01DX009 (ip), vehicle: Klucel (hydroxypropylcellulose) (HPC)) was 112 % of control and 117 % of control; the T/C (dose: 10.0 mg/kg/injection, schedule: Q01DX009 (ip), vehicle: Klucel (hydroxypropylcellulose) (HPC)) is 118 % of control and 124 % of control.

Turning to `CN(C)C(=O)CC(c1ccccc1)C(CO)c1ccccc1` (centres undefined), the T/C is 88 % of control (dose: 25.0 mg/kg/injection, schedule: Q01DX001 (ip), vehicle: Klucel (hydroxypropylcellulose) (HPC)); 91 % of control (dose: 50.0 mg/kg/injection, schedule: Q01DX001 (ip), vehicle: Klucel (hydroxypropylcellulose) (HPC)); 89 % of control (dose: 100.0 mg/kg/injection, schedule: Q01DX001 (ip), vehicle: Klucel (hydroxypropylcellulose) (HPC)); 88 % of control (dose: 200.0 mg/kg/injection, schedule: Q01DX001 (ip), vehicle: Klucel (hydroxypropylcellulose) (HPC)).

`NC(CSS(=O)(=O)O)C(=O)O` (centres undefined): the T/C is, setting by setting: (dose: 50.0 mg/kg/injection, schedule: Q01DX005 (ip), vehicle: saline) 101 % of control; (dose: 100.0 mg/kg/injection, schedule: Q01DX005 (ip), vehicle: saline) 106 % of control; (dose: 200.0 mg/kg/injection, schedule: Q01DX005 (ip), vehicle: saline) 101 % of control.

In the case of `Cc1ccc(O)c[n+]1[O-]`, the T/C by setting is: (dose: 25.0 mg/kg/injection, schedule: Q01DX009 (ip), vehicle: saline) 101 % of control; (dose: 50.0 mg/kg/injection, schedule: Q01DX009 (ip), vehicle: saline) 100 % of control and 105 % of control; (dose: 100.0 mg/kg/injection, schedule: Q01DX009 (ip), vehicle: saline) 102 % of control and 97 % of control; (dose: 200.0 mg/kg/injection, schedule: Q01DX009 (ip), vehicle: saline) 105 % of control and 117 % of control; (dose: 400.0 mg/kg/injection, schedule: Q01DX009 (ip), vehicle: saline) 108 % of control and 109 % of control.

On to `CCOC(=O)NC(=Nc1cccc(C(=O)c2ccc3nc(NC(=O)OCC)[nH]c3c2)c1)NC(=O)OCC`, for which the T/C is, setting by setting: (dose: 15.0 mg/kg/injection, schedule: Q01DX005 (ip), vehicle: saline with Tween-80) 89 % of control; (dose: 30.0 mg/kg/injection, schedule: Q01DX005 (ip), vehicle: saline with Tween-80) 94 % of control.

Take `Cn1cc2c(=O)n(C)ncc2n1`: the T/C was 100 % of control (dose: 60.0 mg/kg/injection, schedule: Q01DX005 (ip), vehicle: saline); 109 % of control (dose: 120.0 mg/kg/injection, schedule: Q01DX005 (ip), vehicle: saline); 100 % of control (dose: 240.0 mg/kg/injection, schedule: Q01DX005 (ip), vehicle: saline).

`NC(=O)c1coc2c1C(=O)c1ccc3ccccc3c1CC2`: the T/C is, setting by setting: under setting [4], 102 % of control; under setting [5], 102 % of control; under setting [6], 108 % of control.

As for `C=C1CC1CC(N)C(=O)O` (centres undefined), the T/C is, setting by setting: under setting [7], 108 % of control; under setting [8], 96 % of control; under setting [9], 100 % of control.

Consider `Cc1ccc(S(=O)(=O)NCc2cccc([N+](=O)[O-])c2)cc1`, for which the T/C was 94 % of control under setting [1], 104 % of control under setting [2] and 98 % of control under setting [3].

In the case of `N=Nc1c(OC(=O)Nc2ccccc2)[nH]c2ccccc12`, the T/C (dose: 50.0 mg/kg/injection, schedule: Q01DX005 (ip), vehicle: Klucel (hydroxypropylcellulose) (HPC)) is 90 % of control; the T/C (dose: 100.0 mg/kg/injection, schedule: Q01DX005 (ip), vehicle: Klucel (hydroxypropylcellulose) (HPC)) is 90 % of control; the T/C (dose: 200.0 mg/kg/injection, schedule: Q01DX005 (ip), vehicle: Klucel (hydroxypropylcellulose) (HPC)) was 87 % of control.

Turning to `Nc1ccc(N(CCCl)CCN(CCCl)c2ccc(N)cc2)cc1`, the T/C runs as follows: (dose: 0.8 mg/kg/injection, schedule: Q01DX009 (ip), vehicle: saline sonified) 176 % of control; (dose: 1.2 mg/kg/injection, schedule: Q01DX009 (ip), vehicle: saline sonified) 209 % of control; under setting [7], 177 % of control; under setting [8], 122 % of control; under setting [9], 90 % of control; (dose: 5.0 mg/kg/injection, schedule: Q04DX003 (ip), vehicle: saline with Tween-80) 118 % of control.

Consider `CNC(=O)OCc1nn(-c2ccc(Cl)c(Cl)c2)c(C)c1COC(=O)NC`, for which the T/C runs as follows: (dose: 12.5 mg/kg/injection, schedule: Q01DX009 (ip), vehicle: distilled water + Tween-80) 87 % of control and 93 % of control; (dose: 25.0 mg/kg/injection, schedule: Q01DX009 (ip), vehicle: distilled water + Tween-80) 86 % of control and 89 % of control; (dose: 50.0 mg/kg/injection, schedule: Q01DX009 (ip), vehicle: distilled water + Tween-80) 90 % of control; (dose: 100.0 mg/kg/injection, schedule: Q01DX009 (ip), vehicle: distilled water + Tween-80) 88 % of control; (dose: 200.0 mg/kg/injection, schedule: Q01DX009 (ip), vehicle: distilled water + Tween-80) 86 % of control and 87 % of control.

With `O=C(CCCN1CCC2(CC1)C(=O)NCN2c1ccc(F)cc1)c1ccc(F)cc1`, the T/C runs as follows: (dose: 50.0 mg/kg/injection, schedule: Q01DX005 (ip), vehicle: saline with Tween-80) 103 % of control; (dose: 100.0 mg/kg/injection, schedule: Q01DX005 (ip), vehicle: saline with Tween-80) 95 % of control; (dose: 200.0 mg/kg/injection, schedule: Q01DX005 (ip), vehicle: saline with Tween-80) 94 % of control.

Consider `CC(C)c1oc(=O)cc2c1C(O)C1OC(=O)C3(C)C(O)C4OC4C2(C)C13` (centres undefined) (tested in a mixture with another compound), for which the T/C was 113 % of control (dose: 15.0 mg/kg/injection, schedule: Q01DX009 (ip), vehicle: saline with Tween-80) and 123 % of control (dose: 60.0 mg/kg/injection, schedule: Q01DX009 (ip), vehicle: saline with Tween-80).

Regarding `COc1cc(C(=O)NNC(=O)C2CCC(=O)N2Cc2ccccc2)cc(OC)c1OC` (centres undefined), the T/C is 89 % of control under setting [4], 90 % of control under setting [5] and 87 % of control under setting [6].
